The values below come from patent US9723817B2 (priority 2011, dated 2017).

The subject of one experiment is wild type N2 C. elegans. In words: EPG recording of pharyngeal pumping in microfluidic EPG array, wild type worms. The experiment is classed as in vivo, Caenorhabditis elegans. The method, then: (§1) C. elegans strains were grown on Nematode Growth Medium (NGM) agar plates seeded with the OP50 strain of E. coli. All strains were obtained from the Caenorhabditis Genetics Center (CGC; Minneapolis, Minn.). Wild-type worms were Bristol N2 and Ivermectin (IVM) resistant mutants were DA1316 avr-14(ad1302); avr-15(ad1051); glc-1(pk54). Worms were age synchronized by allowing gravid adults to lay eggs on seeded NGM plates for approximately 6 hr. The adults were then removed and embryos allowed to develop to adulthood at room temperature.
All experiments utilized M9 buffer (recipe available on the World Wide Web at 130.15.90.245/wormlab_recipe_book.htm#Commonlab; containing KH2PO4, NaHPO4, NaCl and MgSO4) to which serotonin (5HT) was added to stimulate pharyngeal pumping (Raizen and Avery, Neuron 1994 March; 12(3):483-95). Stocks of serotonin creatine sulfate monohydrate (Sigma H7752; St. Louis, Mo.) were prepared in M9 buffer at 40 mM and held in small aliquots at −20° C. until use. Each day of an experiment, a fresh aliquot was thawed and diluted to 10 mM 5HT in M9 buffer. This “M9-5HT” buffer was the control medium to which drugs or other compounds were added. Stock solutions of ivermectin (10 mM; Sigma 8898) were made up in dimethyl sulfoxide (DMSO, Fisher D-136; Fair Lawn, N.J.) and held at −20° C. for no longer than 2 wk. On the day of an experiment, IVM was diluted to the final concentration in M9-5HT buffer containing 0.005% Fast Green (Fisher F-99) as a visual indicator of drug flow within the chip (see below). The dye-containing M9-5HT buffer was filtered (PALL Life Sciences 25 mm Acrodisc syringe filter with 0.2 μm HT Tuffryn Membrane; Port Washington, N.Y.) before drug or DMSO was added.
Young adult worms were transferred from growth plates into a glass well containing M9-5HT buffer and left to acclimate for 10 minutes. […]
(§2) EPGs were recorded by a pair of 4-channel AC differential amplifiers (A-M Systems model 1700, Carlsborg, Wash.) connected to electrodes inserted into the device. […]

Experiment [1] concerns ivermectin resistance mutant C. elegans avr-14(ad1302); avr-15(ad1051); glc-1(pk54). The experiment in a line: EPG recording of pharyngeal pumping in microfluidic EPG array, ivermectin-resistant mutant worms. The experiment is classed as in vivo, Caenorhabditis elegans. The note with it: 10 μM ivermectin in M9-5HT buffer, ivermectin-resistant mutant (FIG. 5). The protocol:
as §1
All experiments utilized M9 buffer (recipe available on the World Wide Web at 130.15.90.245/wormlab_recipe_book.htm#Commonlab; containing KH2PO4, NaHPO4, NaCl and MgSO4) to which serotonin (5HT) was added to stimulate pharyngeal pumping (Raizen and Avery, Neuron 1994 March; 12(3):483-95). Stocks of serotonin creatine sulfate monohydrate (Sigma H7752; St. Louis, Mo.) were prepared in M9 buffer at 40 mM and held in small aliquots at −20° C. until use. Each day of an experiment, a fresh aliquot was thawed and diluted to 10 mM 5HT in M9 buffer. This “M9-5HT” buffer was the control medium to which drugs or other compounds were added. […]
as §2

For `c1ccc([C@H]2CN3CCSC3=N2)cc1` [levamisole], the “inhibition of pharyngeal pumping (EPG)” value in the experiment with wild type N2 C. elegans (10 mM levamisole in M9-5HT buffer, within 10 minutes (FIG. 6B)) is recorded as “completely inhibited”. Also, the “pharyngeal pumping after washout of drug (EPG)” value in the experiment on wild type N2 C. elegans (after 10 mM levamisole, within 60 minutes of wash onset with control buffer (FIG. 6C)) is on record as “returned to normal”.

Consider ivermectin, for which the “size and frequency of EPG signal” value in the experiment with wild type N2 C. elegans (10 μM ivermectin in M9-5HT buffer, 10 minutes after treatment, all eight C. elegans (FIG. 4)) is listed as “significantly reduced or even eliminated”. Besides, in experiment [1], the “block of pharyngeal pumping (EPG)” value is reported as “failed to block”.
